A word on the IC50: it is the midpoint of a concentration-inhibition curve. A lower IC50 goes with higher potency.

For 20 compounds, IC50 results are on record in BindingDB's records for doi:10.1016/s0968-0896(99)00127-3 (Sankyo, 1999).

The target in this assay is T1, Dimer of Gag-Pol polyprotein [489-587] (Human immunodeficiency virus 1, UniProt P12497).
T1 construct: 489-587
The experiment in a line: Protease Inhibition Assay. How it is done:
The inhibitory activities of the compounds toward HIV-1 PR were determined by sodium dodecyl sulfate-polyacrylamide gel electrophoresis (SDS-PAGE) assay. The IC50 values of active compounds were determined using the partially purified protease and the synthetic substrate Ac-Ser-Gln-AsnTyr-Pro-Ile-Val-NH2.
In the case of `Cc1c(O)cc(F)cc1C(=O)N[C@@H](Cc1cccc(C(F)(F)F)c1)[C@H](O)C(=O)N1C[C@@H](Cl)C[C@H]1C(=O)NC(C)(C)C` [(5-Fluoro-3-hydroxy-2-methylbenzoyl)-{2(S)-hydroxy-3(S)-amino-4-(3-trifluoromethyl)-phenylbutanoyl}-4(S)-Cl-Pro-NH-t-Bu], the IC50 stood at 2.1 nM. In other words, the single-digit nanomolar range. In the case of `Cc1ccc(C[C@H](NC(=O)c2cccc(O)c2C)[C@H](O)C(=O)N2C[C@@H](Cl)C[C@H]2C(=O)NC(C)(C)C)cc1C` [(2S,4S)-N-tert-butyl-4-chloro-1-[(2S,3S)-4-(3,4-dimethylphenyl)-2-hydroxy-3-[(3-hydroxy-2-methylphenyl)formamido]butanoyl]pyrrolidine-2-carboxamide], the IC50 amounted to 1.2 nM. `Cc1c(O)cccc1C(=O)N[C@@H](Cc1ccc(-c2ccccc2)cc1)[C@H](O)C(=O)N1C[C@@H](Cl)C[C@H]1C(=O)NC(C)(C)C` [(3-Hydroxy-2-methylbenzoyl)-{2(S)-hydroxy-3(S)-amino-4-(4-phenyl)-phenylbutanoyl}-4(S)-Cl-Pro-NH-t-Bu]: the IC50 stood at 0.9 nM. Compound `Cc1ccccc1C[C@H](NC(=O)c1c(C)ccc(O)c1C)[C@H](O)C(=O)N1C[C@@H](Cl)C[C@H]1C(=O)NC(C)(C)C` [(2S,4S)-N-tert-butyl-4-chloro-1-[(2S,3S)-2-hydroxy-3-[(3-hydroxy-2,6-dimethylphenyl)formamido]-4-(2-methylphenyl)butanoyl]pyrrolidine-2-carboxamide] displayed an IC50 of 34.3 nM. Compound `Cc1c(O)cc(F)cc1C(=O)N[C@@H](Cc1ccc2sccc2c1)[C@H](O)C(=O)N1C[C@@H](Cl)C[C@H]1C(=O)NC(C)(C)C` [(5-Fluoro-3-hydroxy-2-methylbenzoyl)-{2(S)-hydroxy-3(S)-amino-4-(benzo[b]thiophene-5-yl)-butanoyl}-4(S)-Cl-Pro-NH-t-Bu] registered an IC50 of 1.9 nM. Compound `Cc1ccc(C(=O)N[C@@H](Cc2ccc(C(F)(F)F)cc2)[C@H](O)C(=O)N2C[C@@H](Cl)C[C@H]2C(=O)NC(C)(C)C)c(C)c1O` [(2S,4S)-N-tert-butyl-4-chloro-1-[(2S,3S)-2-hydroxy-3-[(3-hydroxy-2,4-dimethylphenyl)formamido]-4-[4-(trifluoromethyl)phenyl]butanoyl]pyrrolidine-2-carboxamide] had an IC50 of 6.3 nM. Next, `Cc1ccc(O)c(C)c1C(=O)N[C@@H](Cc1ccc2ccccc2c1)[C@H](O)C(=O)N1C[C@@H](Cl)C[C@H]1C(=O)NC(C)(C)C` [(2S,4S)-N-tert-butyl-4-chloro-1-[(2S,3S)-2-hydroxy-3-[(3-hydroxy-2,6-dimethylphenyl)formamido]-4-(naphthalen-2-yl)butanoyl]pyrrolidine-2-carboxamide]: 2.8 nM.

In the case of `Cc1ccc(O)c(C)c1C(=O)N[C@@H](Cc1cccc(C(F)(F)F)c1)[C@H](O)C(=O)N1C[C@@H](Cl)C[C@H]1C(=O)NC(C)(C)C` [(2S,4S)-N-tert-butyl-4-chloro-1-[(2S,3S)-2-hydroxy-3-[(3-hydroxy-2,6-dimethylphenyl)formamido]-4-[3-(trifluoromethyl)phenyl]butanoyl]pyrrolidine-2-carboxamide], the IC50 is 4.6 nM. Regarding `Cc1c(O)cccc1C(=O)N[C@@H](Cc1cccc(C(F)(F)F)c1)[C@H](O)C(=O)N1C[C@@H](Cl)C[C@H]1C(=O)NC(C)(C)C` [(3-Hydroxy-2-methylbenzoyl)-{2(S)-hydroxy-3(S)-amino-4-(3-trifluoromethyl)-phenylbutanoyl}-4(S)-Cl-Pro-NH-t-Bu], 0.5 nM corresponded to half-maximal inhibition (IC50).

On to `Cc1cccc(C[C@H](NC(=O)c2ccc(C)c(O)c2C)[C@H](O)C(=O)N2C[C@@H](Cl)C[C@H]2C(=O)NC(C)(C)C)c1` [(3-Hydroxy-2,4-dimethylbenzoyl)-(2(S)-hydroxy-3(S)-amino-4-m-tolylbutanoyl)-4(S)-Cl-Pro-NH-t-Bu], for which 2.5 nM corresponded to half-maximal inhibition (IC50). Against the preceding compound, the IC50 is about 5-fold higher. The compound `COc1ccc(C[C@H](NC(=O)c2cccc(O)c2C)[C@H](O)C(=O)N2C[C@@H](Cl)C[C@H]2C(=O)NC(C)(C)C)cc1` [(3-Hydroxy-2-methylbenzoyl)-{2(S)-hydroxy-3(S)-amino-4-(4-methoxy)-phenylbutanoyl}-4(S) -Cl-Pro-NH-t-Bu] displayed an IC50 of 0.9 nM. This IC50 is about 2.8-fold lower than that of the compound before. Next, `Cc1ccc(C[C@H](NC(=O)c2cccc(O)c2C)[C@H](O)C(=O)N2C[C@@H](Cl)C[C@H]2C(=O)NC(C)(C)C)cc1` [(3-Hydroxy-2-methylbenzoyl)-(2(S)-hydroxy-3(S)-amino-4-p-tolylbutanoyl)-4(S)-Cl-Pro-NH-t-Bu]: 0.9 nM; `Cc1c(O)cccc1C(=O)N[C@@H](Cc1ccc2ccccc2c1)[C@H](O)C(=O)N1C[C@@H](Cl)C[C@H]1C(=O)NC(C)(C)C` [(3-Hydroxy-2-methylbenzoyl)-{2(S)-hydroxy-3(S)-amino-4-(beta-naphtyl)-butanoyl}-4(S)-Cl-Pro-NH-t-Bu]: 1 nM; `Cc1c(O)cccc1C(=O)N[C@@H](Cc1cc(F)cc(F)c1)[C@H](O)C(=O)N1C[C@@H](Cl)C[C@H]1C(=O)NC(C)(C)C` [(3-Hydroxy-2-methylbenzoyl)-{2(S)-hydroxy-3(S)-amino-4-(3,5-difluoro)-phenylbutanoyl}-4(S)-Cl-Pro-NH-t-Bu]: 0.8 nM.

In the case of `Cc1ccc(C[C@H](NC(=O)c2c(C)ccc(O)c2C)[C@H](O)C(=O)N2C[C@@H](Cl)C[C@H]2C(=O)NC(C)(C)C)cc1`, the IC50 was determined as 3.6 nM.

`Cc1c(O)cccc1C(=O)N[C@@H](Cc1cccc2ccccc12)[C@H](O)C(=O)N1C[C@@H](Cl)C[C@H]1C(=O)NC(C)(C)C` [(3-Hydroxy-2-methylbenzoyl)-{2(S)-hydroxy-3(S)-amino-4-(alpha-naphtyl)-butanoyl}-4(S)-Cl-Pro-NH-t-Bu] came in with an IC50 of 1.5 nM. `Cc1c(O)cccc1C(=O)N[C@@H](CCc1ccccc1)[C@H](O)C(=O)N1C[C@@H](Cl)C[C@H]1C(=O)NC(C)(C)C` [(3-Hydroxy-2-methylbenzoyl)-(2(S)-hydroxy-3(S)-amino-5-phenylpentanoyl)-4(S)-Cl-Pro-NH-t-Bu] registered an IC50 of 1.4 nM. The compound `Cc1ccc(O)c(C)c1C(=O)N[C@@H](Cc1ccc(C(F)(F)F)cc1)[C@H](O)C(=O)N1C[C@@H](Cl)C[C@H]1C(=O)NC(C)(C)C` yielded a half-maximal inhibitory concentration (IC50) of 3.9 nM. This IC50 lies about 2.8-fold higher than the previous one. For the compound `Cc1ccccc1C[C@H](NC(=O)c1cccc(O)c1C)[C@H](O)C(=O)N1C[C@@H](Cl)C[C@H]1C(=O)NC(C)(C)C` [(2S,4S)-N-tert-butyl-4-chloro-1-[(2S,3S)-2-hydroxy-3-[(3-hydroxy-2-methylphenyl)formamido]-4-(2-methylphenyl)butanoyl]pyrrolidine-2-carboxamide], 4.5 nM corresponded to half-maximal inhibition (IC50). For the compound `Cc1ccc(C(=O)N[C@@H](Cc2ccccc2)[C@H](O)C(=O)N2C[C@@H](Cl)C[C@H]2C(=O)NC(C)(C)C)c(C)c1O`, half-maximal inhibition (IC50) was put at 8.2 nM. Compared with the last compound, the IC50 is about 1.8-fold higher.
